The text below walks through data of publication PMC3002971, “A Universal Approach to Eliminate Antigenic Properties of Alpha-Gliadin Peptides in Celiac Disease” (PLoS ONE, 2010).

The subject of one data set is DQ8-Glia-α1 T cell clone. Put plainly: T cell proliferation assay, DQ8-Glia-α1 T cell clone. Conditions: 3H-thymidine proliferation, triplicate; deamidated peptides, antigen 1–10 µg/ml; stimulation compared to canonical epitope. Also on record: key: ± = 100 times reduced T cell stimulation compared to the ‘canonical’ epitope; - = 1000 times reduced T cell stimulation compared to the ‘canonical’ epitope. The format is cell-based, human. As for the experimental part:
(§1) Gluten specific T cell clones were generated from small intestinal biopsies of celiac disease patients as described before, [11], [12]. All patients signed an informed consent form which was approved by the hospital ethics committee. Proliferation assays were performed in triplicate in 150 µl Iscove's Modified Dulbecco's Medium (Bio Whittaker, Verviers, Belgium) with 10% pooled normal human serum in 96 well flat-bottom plates using 2×10^4 gluten specific T cells stimulated with […] irradiated HLA-DQ2-matched allogeneic peripheral blood mononuclear cells (3000 rad) in the presence or absence of antigen (1–10 µg/ml), [11], [12]. After 2 days ^3H-thymidine (0.5 µCi/well) was added to the cultures, and 18–20 hours thereafter the cells were harvested. ^3H-thymidine incorporation in the T cell DNA was determined with a liquid scintillation counter (1205 Betaplate Liquid Scintillation Counter, LKB Instruments, Gaithersburg, MD). A binding assay was performed as described previously.

The test system of another data set is T cell. Particulars: cited from earlier work. The text has this:
Many gluten peptides with T cell stimulatory properties have now been identified. Such peptides have been found in wheat α-, γ-, and ω-gliadins as well as in low molecular weight (LMW) and high molecular weight (HMW) glutenins [8]–[14]. […] An α-gliadin derived 33-mer peptide (amino acid sequence […]) was identified that encodes six partially o ...

For data set [1] the following is noted: cited from earlier work. The source says: In addition to the canonical epitope motifs, a large series of sequence variants with one or two amino acid substitutions were detected ( Tables 2 , 3 , 4 , 5 ). The large majority of the Gli-B2 gliadins contained sequence variants of the DQ2-Glia-α1, DQ2-Glia-α2, and DQ2-Glia-α3 epitopes with two amino acid substitutions. Furthermore, Gli-A2 transcripts harbored a proline to serine substitution at position 8 (p8) of the DQ2-Glia-α2 epitope and a sequence variant (QGSFRP(S/F)QQN, amino acid substitution in bold) of the DQ8-Glia-α1 epitopes. Importantly, the 33-mer peptide ([…] ...

The test system of data set [2] is DQ2-Glia-α2 specific T cell clones. Briefly: T cell proliferation assay, DQ2-Glia-α2 specific T cell clone. The format is cell-based, human. Also on record: key: ± = 100 times reduced T cell stimulation compared to the ‘canonical’ epitope; - = 1000 times reduced T cell stimulation compared to the ‘canonical’ epitope. Conditions: 3H-thymidine proliferation, triplicate; deamidated 14- to 17-mer peptides, antigen 1–10 µg/ml; stimulation compared to canonical epitope. As for the experimental part:
as §1

The subject of data set [3] is DQ2-Glia-α1 specific T cell clones. Briefly: T cell proliferation assay, DQ2-Glia-α1 specific T cell clone. The format is cell-based, human. Further details: key: ± = 100 times reduced T cell stimulation compared to the ‘canonical’ epitope; - = 1000 times reduced T cell stimulation compared to the ‘canonical’ epitope. Conditions: 3H-thymidine proliferation, triplicate; deamidated 14- to 17-mer peptides, antigen 1–10 µg/ml; stimulation compared to canonical epitope. As for the experimental part:
as §1

For the substance LGEGFFQPSQENP [Peptide 20], in the data set on DQ8-Glia-α1 T cell clone, the “DQ8-Glia-α1 T cell clone” value is reported as “-”.

“LQLQPFPQPQLPYPQPQLPYPQPQLPYPQPQPF [33-mer peptide]”: the “T cell stimulatory properties” value in the data set on T cell is “very potent T cell stimulatory properties”. Moreover, the “resistance to degradation in the gastrointestinal tract” value in data set [1] is listed as “highly resistant to degradation”.

For the substance QPQPFP-PELPYPQTQP [Peptide 15], the “Glia-α2 T cell clone” value in data set [2] is reported as “-”. Further, in data set [3], the “Glia-α1 T cell clone” value is on record as “-”.
